For 75 compounds, EC50, IC50 and outcome results are on record in PubChem BioAssay AID179 (DTP/NCI, 2004).

In the assay the test system is CEM cells HIV-1 protection, formazan growth assay. The assay can be described thus: NCI AIDS Antiviral Assay. The note with it: for IC50: measured here: growth of uninfected CEM cells. A digest of the protocol: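 Human CEM cells, uninfected and HIV-1-infected, exposed to five drug concentrations; growth measured by soluble formazan assay and scored as percent protection from infection, with protecting compounds retested.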

Several values for one entry are separate records, joined by “and”; a condition that tells them apart may be missing. Equal values may be shown once. Activity calls are given as the source filed them.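 Rule for the calls: active = compounds giving half or more protection of infected cells from virus-caused growth loss, again on retest; inactive = the rest.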 Where a SMILES comes first, the peptide text is derived from it. [ ]: non-standard residue; d: D form. The star is where a group is joined. ξ: configuration not given here. ξF = NC(Cc1ccccc1)C(=O)O; Cbz = O=C(OCc1ccccc1)*; Aib = CC(C)(N)C(=O)O; NHNH2 = NN*

As usually defined, the EC50 is the concentration giving half of the maximal effect. In general, IC50 refers to the concentration that inhibits the measured activity by half. Low readings indicate higher potency, high ones lower potency. Consider `Cc1cc(C)nc(NS(=O)(=O)c2ccc(Nc3c4ccccc4nc4c(C(=O)Nc5ccc(S(N)(=O)=O)cc5)cccc34)cc2)n1`, for which the EC50 was more than 145 µM and the 50% inhibitory concentration (IC50) is more than 145 µM.
Take `Cc1nccc2c1cnc1ccnn12`: the EC50 was more than 28.2 µM and the IC50 is more than 28.2 µM.
Turning to `N#CC12CC3=C(N=C1NC1=C(CCc4ccccc41)C2)c1ccccc1CC3` (stereo not given), the EC50 was more than 200 µM and the IC50 was found to be 3.02 µM.
For `CC1=NN(C(=O)c2ccccc2)C(C)C1N=Nc1ccccc1C(=O)O` (stereo not given), the outcome was inactive.
With `CC(C)(C)[Si](C)(C)OC1/C(=C/C#N)C(n2ccc(=O)[nH]c2=O)OC1CO` (stereo not given), the EC50 was more than 200 µM and the IC50 is more than 200 µM.
With `Cc1ccc(N=C2N=C(N3CC(C)OC(C)C3)c3ccccc32)cc1` (stereo not given), the EC50 is more than 107 µM and the IC50 turned out to be 26.3 µM.
Taken in the same sequence, the figures for `CCCc1c(O)c2ccccc2[nH]c1=O` were more than 200 µM and more than 200 µM.
Take `O=C1C2C3C=CC(O3)C2C(=O)N1/N=C/c1ccc2c(c1)OCO2` (stereo not given): the EC50 is more than 200 µM and the IC50 was more than 200 µM.
In the case of `c1ccc(C2=NN2c2ccccc2)cc1`, the result was inactive.
Turning to `CCCCCCCCCCNCCSSCCNC(C)=O`, the EC50 was more than 200 µM and the concentration for half-maximal inhibition (IC50) came to 5.37 µM.
In the same order, the values of `CNC(=O)c1cc(NC(=O)N(CCC#N)CCN(C(=O)N[C@@H](Cc2ccccc2)C(=O)N[C@@H](CC(C)C)C(=O)NC)c2ccccc2)ccc1OC` are more than 200 µM and 32.4 µM.
As to `CCOC(=O)/C(=C/c1ccccc1)N(CC)CC`, the EC50 was more than 55 µM and the IC50 was more than 55 µM.
Regarding `CC(C)(C)OC(=O)NC(Cc1ccc(O)cn1)C(N)=O` (stereo not given), the EC50 is more than 200 µM and the half-inhibitory concentration (IC50) was more than 200 µM.
Consider `NC1=C(c2nc(-c3cc4ccccc4oc3=O)cs2)C(c2ccco2)c2c(c3ccccc3oc2=O)O1` (stereo not given), for which the EC50 is more than 100 µM and the concentration for half-maximal inhibition (IC50) was more than 100 µM.
Consider `COc1ccc(OC)c(-c2cc(=O)c3c(OC)c(OC)c(OC)c(OC)c3o2)c1`, for which the EC50 is more than 200 µM and the IC50 was found to be 29.5 µM.
In the case of `O=[N+]([O-])c1ccc2c(c1)C1=C(CO2)Cc2ccccc2O1`, the result was inactive.
In the case of `COC1OC(COC(C)=O)C(OC(C)=O)C(OC(C)=O)C1NC(=O)N(CCCl)N=O` (stereo not given), the EC50 was more than 288 µM; the IC50 was 91.2 µM and > 209 µM.
For the compound `Cc1cn(C2CCCCC2O)c(=O)[nH]c1=O` (stereo not given), the EC50 was more than 302 µM and the 50% inhibitory concentration (IC50) was more than 302 µM.
For the compound `CC(=O)OCC1OC(Nc2cc(=O)n(C)c(=O)[nH]2)C(OC(C)=O)C(OC(C)=O)C1OC(C)=O` (stereo not given), the outcome was inactive.
For `COc1ccc(/C(=N/NC(=O)NN)C(c2ccc(OC)cc2)C2(O)CNc3c(Cl)cc(Cl)cc32)cc1` (stereo not given), the EC50 is more than 9.77 µM and the IC50 is more than 9.77 µM.
For the compound `O=C(O)CCC(=O)NCCNC(=O)CC(=O)O`, the EC50 is more than 1000 µM and the concentration for half-maximal inhibition (IC50) was more than 1000 µM.
On to `C=CC(C1=CC(=O)C(OC)=CC1=O)c1ccccc1` (stereo not given), for which the result was inactive.
For `CC(=O)C(=Cc1cccc([N+](=O)[O-])c1)C(C)=O`, the EC50 is more than 155 µM and the concentration for half-maximal inhibition (IC50) came to 20.4 µM.
On to `NC(=O)C(NC=O)c1ccccc1` (stereo not given), for which the EC50 was more than 200 µM and the IC50 was more than 200 µM.
In the case of `Cc1nc2c(=S)n(C)ncc2[nH]1`, the EC50 was 30.9 µM and the IC50 is more than 100 µM.
For `COc1cc(C[C@H]2C(=O)OC[C@@H]2Cc2ccc(OC)c(OC)c2)cc(OC)c1`, the EC50 is more than 200 µM and the IC50 is 91.2 µM.
In the case of `NC(CO)(CO)CO`, the EC50 was more than 200 µM and the concentration for half-maximal inhibition (IC50) is more than 200 µM.
Consider `O=C(/C=C/c1ccc(OCCSCCCCCCCCCCSCCOc2ccc(/C=C/C(=O)c3ccc(Cl)cc3)cc2)cc1)c1ccc(Cl)cc1`, for which the EC50 is more than 12.9 µM and the half-maximal inhibitory concentration (IC50) is 12 µM.
Take `COc1ccc(OC)c(/C=C/c2ccc3ccccc3n2)c1`: the EC50 is more than 24.5 µM and the half-maximal inhibitory concentration (IC50) is more than 24.5 µM.
With `Nc1ccc(C2SCC(=O)N2NS(=O)(=O)c2cccc(C(=O)O)c2)cc1` (stereo not given), the EC50 was 36.3 µM and the IC50 was 132 µM.
For the compound `CC1=C(C)SC(=C2Sc3nc(O)[nH]c(=O)c3S2)S1`, the EC50 was more than 200 µM and the IC50 turned out to be 145 µM.
`O=C(CC(=O)C1=CNc2ccccc2S1)C(=O)Nc1ccc(Cl)cc1`: the EC50 is more than 126 µM and the 50% inhibitory concentration (IC50) is more than 126 µM.
Regarding `NC(=O)C(=CNC(=S)NCc1ccccc1)C(N)=O`, the EC50 was more than 200 µM and the IC50 is more than 200 µM.
`O=C(O)COc1ccc(S(=O)(=O)c2ccc(OCC(=O)O)c([N+](=O)[O-])c2)cc1[N+](=O)[O-]`: the EC50 was more than 200 µM and the half-inhibitory concentration (IC50) is more than 200 µM.
Regarding `Cc1ccc(S(=O)(=O)SSSSS(=O)(=O)c2ccc(C)cc2)cc1`, the EC50 is more than 30.9 µM and the IC50 was more than 30.9 µM.
Consider `COc1ccccc1/C=C1\S/C(=N/Nc2nc(C)c(C(C)=O)s2)NC1=O`, for which the EC50 was more than 200 µM and the half-maximal inhibitory concentration (IC50) is 112 µM.
Consider `S=C(Nc1ccccn1)Nc1ccccn1`, for which the EC50 is more than 200 µM and the IC50 came out at 195 µM.
Regarding `Nc1ccc(C(=O)NN2C(=O)C(Cl)C2c2cccc([N+](=O)[O-])c2)cc1` (stereo not given), the EC50 is more than 200 µM and the IC50 amounted to 10.2 µM.
For `Cc1ccc(NC(=O)C(=O)C2C(=O)N(c3ccccc3)N=C2N)cc1C` (stereo not given), the result was inactive.
In the case of `CC(=O)OC/C=C/Cn1cnc(C(N)=O)c1N`, the EC50 was more than 200 µM and the IC50 was more than 200 µM.
As to `[N-]=[NH+]CC(=O)OC(COCc1ccccc1)COCc1ccccc1`, the EC50 is more than 200 µM and the half-maximal inhibitory concentration (IC50) came out at 117 µM.
Turning to `CC(C)=CCC[C@@H](C)C1=C(O)C(O)C(C)=C2N=C(c3ccccc3)C(=O)OC21` (stereo not given in full), the EC50 was more than 200 µM and the IC50 amounted to 3.8 µM.
For the compound `CC(C)(C)C(=O)/C=C/c1ccc([N+](=O)[O-])cc1`, the result was inactive and the IC50 was determined as 10.2 µM.
In the case of `NC(=O)CC1C(CO)OC(n2ccc(=O)[nH]c2=O)C1O` (stereo not given), the EC50 was more than 200 µM and the concentration for half-maximal inhibition (IC50) was more than 200 µM.
As for `CC(C)(NC(=O)OCc1ccccc1)C(=O)NC(Cc1ccccc1)C(=O)NN` (stereo not given) (Cbz-[Aib]-[ξF]-NHNH2), the EC50 was more than 200 µM and the concentration for half-maximal inhibition (IC50) was more than 200 µM.
On to `Cc1c(Cc2ccc(Cl)cc2)c(=O)[nH]c(=O)n1C`, for which the EC50 was more than 97.7 µM and the half-inhibitory concentration (IC50) was more than 97.7 µM.
With `[O]=[Sb]([OH])([OH])[c]1ccc(Br)cc1`, the EC50 is more than 200 µM and the 50% inhibitory concentration (IC50) came out at 35.5 µM.
For `O=C(CSc1nc(-c2ccccc2)c(-c2ccccc2)[nH]1)N/N=C/c1ccc(Cl)cc1`, the EC50 is more than 20.9 µM and the IC50 was 12 µM.
Turning to `CC(=O)Oc1c(C(C)C)cc2c(c1OC(C)=O)CC1(C)OC(=O)CC(C)(C)C1=CC2` (stereo not given), the outcome was inactive.
`N#CCCC(C#N)(C#N)CCC#N`: the EC50 was more than 759 µM and the half-maximal inhibitory concentration (IC50) is more than 759 µM.
In the case of `O=C(Nc1nc2ncn(CCOC(=O)c3ccccc3)c2c(=O)[nH]1)c1ccccc1`, the EC50 is more than 85.1 µM and the IC50 is 61.7 µM.
Take `CCCCc1ccc(Nc2nc(Cl)c3ncn(C4CC(Oc5ccc(C)cc5)C(COc5ccc(C)cc5)O4)c3n2)cc1` (stereo not given): the EC50 is more than 200 µM and the half-maximal inhibitory concentration (IC50) was more than 200 µM.
Take `Nc1n[n+]([O-])c2ccc(Cl)cc2[n+]1[O-]`: the EC50 was more than 200 µM and the IC50 came out at 3.55 µM.
Take `CCOC(=O)N1CC2(C)C=CC1C(C(=O)OC)C2` (stereo not given): the EC50 is more than 200 µM and the IC50 is more than 200 µM.
Take `Oc1cccc(/C=C/c2cnnc3ccccc23)c1`: the EC50 was more than 200 µM and the concentration for half-maximal inhibition (IC50) came out at 37.2 µM.
For `CCC(CCCC[C@H]1CC[C@@H]2CC(=O)C[C@H]12)OC` (stereo not given in full), the EC50 is more than 200 µM and the half-inhibitory concentration (IC50) is more than 200 µM.
Regarding `CCOC(=O)c1cc2cc([N+](=O)[O-])ccc2oc1=O`, the EC50 was more than 105 µM and the IC50 was more than 105 µM.
Regarding `C/C(=C\CNc1ncnc2c1ncn2C1CCCCO1)COP(=O)(O)O` (stereo not given), the result was inactive.
Consider `Nc1ccc(/C=C/c2ccc3cccnc3c2)cc1`, for which the EC50 is 0.0631 µM and the IC50 is more than 200 µM.
In the case of `CCOC1(OCC)CC2C(=O)CCCC21OC(C)=O` (stereo not given), the EC50 is more than 229 µM and the IC50 is 132 µM.
`CCOC(=O)c1ccc(CSc2ccc([N+](=O)[O-])cc2)cc1`: the EC50 is more than 6.31 µM and the half-inhibitory concentration (IC50) was more than 6.31 µM.
As for `S=C(/C=C1\SC(=Nc2ccccc2)C(=Nc2ccccc2)N1c1ccccc1)Nc1ccccc1`, the EC50 is more than 200 µM and the 50% inhibitory concentration (IC50) is more than 200 µM.
Take `CCOC(=O)C(C(=O)OCC)C1c2ccccc2-c2ccccc21`: the EC50 was more than 200 µM and the 50% inhibitory concentration (IC50) was 77.6 µM.
On to `CC(C)c1ccc(/C=C/c2cc(C(=O)NNC(=O)NC3CCCCC3)nc(=S)[nH]2)cc1`, for which the EC50 is more than 6.17 µM and the IC50 is more than 6.17 µM.
For the compound `c1ccc(C2=NOC3C4CCC(C4)C23)cc1` (stereo not given), the outcome was inactive.
As for `CC1(C)C(=O)N(O)C(C)(C)N1O`, the EC50 was more than 200 µM and the IC50 was more than 200 µM.
In the case of `N/C(=N\N=C\c1ccccn1)NO`, the EC50 is more than 200 µM and the IC50 turned out to be 33.1 µM.
With `CC1(C)OC(=O)NC1=O`, the outcome was inactive.
On to `CN1CCC23CCCC[C@H]2C1CC1=C3CC(=O)CC1` (stereo not given in full), for which the EC50 is more than 692 µM and the IC50 was 263 µM.
Take `Cc1cc2ncc3c(=O)n(NS(=O)(=O)c4ccc(N)cc4)ccc3n2n1`: the EC50 is more than 200 µM and the IC50 is more than 200 µM.
Consider `CC(C)(C)c1cc(C(P(=O)(c2ccccc2)c2ccccc2)P(=O)(c2ccccc2)c2ccccc2)cc(C(C)(C)C)c1O`, for which the EC50 was more than 200 µM and the IC50 worked out at 3.24 µM.
With `CC1=C(C#N)c2nc3ccccc3n2C(=O)C1(C)CCO` (stereo not given), the EC50 is more than 200 µM and the half-inhibitory concentration (IC50) was more than 200 µM.
For `O=C(O)C[n+]1ccccc1`, the EC50 is 148 µM and the IC50 was more than 200 µM.
Turning to `CCOC(=O)/N=N/C(C)(C)OC(C)=O`, the EC50 was more than 200 µM and the IC50 was more than 200 µM.
For `CCOC(=O)/C=C/c1cccc(F)c1`, the EC50 is more than 200 µM and the 50% inhibitory concentration (IC50) is more than 200 µM.
